Experiments:
P-gp (human MDR1) = target: T1, P-gp (human MDR1) (Homo sapiens, UniProt P08183); assay: P-gp (P-Glycoprotein) bidirectional transcellular transport assay, LLC-PK1 and L-MDR1 cells; format: in vitro ADME; settings: LLC-PK1 cells expressing human MDR1, PappBA/PappAB
T1 construct: host or cells: LLC-PK1 (porcine kidney epithelial cells)
Experimental: P-gp (P-Glycoprotein) Assay
Cell Lines and Vesicles Used for Transport Experiments
The MDR1 (human multidrug resistance protein 1) transfected cell lines were obtained from Dr. A. Schinkel, The Netherlands Cancer Institute (Amsterdam, The Netherlands). All cell lines were cultured on permeable inserts (Costar, 0.33 cm^2 area, pore size 3.0 μm, low density) at 4.5·10^5 cells/cm^2. Transport measurements were performed at day 4 after seeding. Tightness of the cell monolayer was controlled via the permeability of the extracellular marker lucifer yellow (10 μM).
In Vitro Transport Experiments
Bidirectional transcellular transport using LLC-PK1 and L-MDR1 LLC-PK1 cells exogenously expressing the human MDR1)
The method used for transport experiments were performed on a TECAN automated liquid handling system. Briefly, medium was removed from all compartments and the medium of receiver side was replaced with culture medium. The trans-cellular transport measurements were initiated by adding the substrate together with extracellular marker lucifer yellow to the donor side. Inhibitors were added to both sides (1 μM elacridar). […] The plates were incubated at 37° C. and 5% CO2 in a Liconic incubator. Samples were taken from the donor and the opposite (acceptor) side after 2 hours incubation. Concentrations of substrate in both compartments were determined by scintillation counting (digoxin) or by LC-MS/MS. […] In each experiment 3 different inserts were used for each condition and a mean was calculated.
Bidirectional transcellular transport using LLC-PK1 and L-MDR1 cells
For the transcellular transport, the following equation was used for data evaluation: […]
Where Papp, A, C0, and dQ/dt represent the apparent permeability, the filter surface area, the initial concentration, and the amount transported per time period, respectively.
Transport efflux ratios (ER) were calculated as follows: […]
Where PappBA is the permeability value in the basolateral-to-apical direction, and PappAB the permeability value in the apical-to-basolateral direction. Papp were not corrected for flux of the extracellular marker lucifer yellow, which was used to assess the quality of the cell mono layers.

[1] = target: T2, cathepsin D (from human liver) (Homo sapiens, UniProt P07339); assay: Cathepsin D fluorescent substrate kinetic assay; format: biochemical; settings: pH 5.5
T2 construct: cathepsin D (from human liver, Calbiochem) diluted in assay buffer; purchased Calbiochem; host or cells: human liver
T2 sequence (P07339 65-412): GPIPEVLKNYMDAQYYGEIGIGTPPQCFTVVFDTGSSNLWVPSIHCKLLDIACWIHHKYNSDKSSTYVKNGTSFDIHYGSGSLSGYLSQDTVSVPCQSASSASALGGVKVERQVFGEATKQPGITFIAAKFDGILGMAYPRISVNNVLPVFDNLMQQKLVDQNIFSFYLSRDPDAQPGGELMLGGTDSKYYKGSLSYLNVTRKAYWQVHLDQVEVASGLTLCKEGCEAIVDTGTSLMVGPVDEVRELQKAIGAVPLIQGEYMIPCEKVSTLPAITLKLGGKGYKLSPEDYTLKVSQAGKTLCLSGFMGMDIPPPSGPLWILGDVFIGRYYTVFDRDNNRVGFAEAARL
Description: Cathepsin D and Cathepsin E Fluorescent Substrate Kinetic Assays
The MR121 fluorescence assays described below are based on the fact that MR121 forms a non-fluorescent ground state complex with tryptophan. In solution this formation occurs at millimolar concentrations of tryptophan. The mechanism can be used to design a generic biochemical assay for proteases. […] In absence of protease activity, the substrates remain intact and the MR121 fluorescence is reduced by the high local Trp-concentration. If the substrates are cleaved by the enzymes the MR121 fluorescence is recovered.
The fluorescent substrate cathepsin D and cathepsin E kinetic assays were performed at room temperature in 384-well microtiter plates (black with clear flat bottom, non binding surface plates from Corning) in a final volume of 51 μl. The test compounds were serially diluted in DMSO (15 concentrations, 1/3 dilution steps) and 1 μl of diluted compounds were mixed for 10 min with 40 μl of cathepsin D (from human liver, Calbiochem) diluted in assay buffer (100 mM sodium acetate, 0.05% BSA, pH 5.5; final concentration: 200 nM) or with 40 μl of recombinant human cathepsin E (R&D Systems) diluted in assay buffer (100 mM sodium acetate, 0.05% BSA, pH 4.5; final concentration: 0.01 nM). […] The slope in the linear range of the kinetic was calculated and the IC50 of the test compounds were determined using a four parameter equation for curve fitting.

CYP2C9 = target: T3, CYP2C9 (Homo sapiens, UniProt P11712); assay: CYP inhibition assay, CYP2C9; format: in vitro ADME; settings: pooled human liver microsomes, diclofenac substrate; read-out: CYP IC50 2C9
T3 construct: 0.2 mg/ml pooled human liver microsomes; from tissue; host or cells: pooled human liver microsomes
T3 sequence (P11712 whole entry): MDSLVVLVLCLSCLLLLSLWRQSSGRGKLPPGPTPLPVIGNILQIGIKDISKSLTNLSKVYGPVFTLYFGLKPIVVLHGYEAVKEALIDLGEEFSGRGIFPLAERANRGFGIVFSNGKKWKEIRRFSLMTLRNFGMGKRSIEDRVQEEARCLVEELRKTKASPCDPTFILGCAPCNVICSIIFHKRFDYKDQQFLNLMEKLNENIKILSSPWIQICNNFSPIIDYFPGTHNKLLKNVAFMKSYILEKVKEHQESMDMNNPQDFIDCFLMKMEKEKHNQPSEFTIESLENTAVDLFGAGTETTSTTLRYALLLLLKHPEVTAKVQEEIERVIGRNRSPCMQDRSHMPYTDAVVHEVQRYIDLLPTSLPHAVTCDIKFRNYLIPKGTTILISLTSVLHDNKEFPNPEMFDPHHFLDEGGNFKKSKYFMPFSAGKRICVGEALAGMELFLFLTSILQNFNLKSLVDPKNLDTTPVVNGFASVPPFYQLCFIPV
Experimental: Inhibition of cytochromes P450 (CYPs) 2C9, 2D6 and 3A4 was assessed using human liver microsomes and CYP-selective substrate metabolism reactions. […] Quenched incubates were stored at −20° C. for at least 1 hour before centrifugation (20,000×g, 20 minutes). Supernatants were removed and diluted 1:1 with water prior to analysis using a RapidFire sample injector system and API4000 mass spectrometer. Peak areas for substrate, metabolite and stable-labelled metabolite standard were determined using MS/MS. The peak area ratios between the metabolite generated by the enzymatic reaction and the internal standard were used in subsequent calculations. The percentage of (DMSO) control activity was calculated for each incubate and IC50 values estimated by non-linear regression. Sulfaphenazole, quinidine or ketoconazole were tested in each CYP2C9, CYP2D6 or CYP3A4 inhibition experiment, respectively, to ensure assay sensitivity and reproducibility.

hERG = hERG (Homo sapiens, UniProt Q12809); assay: hERG current measurement (automated patch clamp); format: cell-based
Sequence of hERG (Q12809 whole entry): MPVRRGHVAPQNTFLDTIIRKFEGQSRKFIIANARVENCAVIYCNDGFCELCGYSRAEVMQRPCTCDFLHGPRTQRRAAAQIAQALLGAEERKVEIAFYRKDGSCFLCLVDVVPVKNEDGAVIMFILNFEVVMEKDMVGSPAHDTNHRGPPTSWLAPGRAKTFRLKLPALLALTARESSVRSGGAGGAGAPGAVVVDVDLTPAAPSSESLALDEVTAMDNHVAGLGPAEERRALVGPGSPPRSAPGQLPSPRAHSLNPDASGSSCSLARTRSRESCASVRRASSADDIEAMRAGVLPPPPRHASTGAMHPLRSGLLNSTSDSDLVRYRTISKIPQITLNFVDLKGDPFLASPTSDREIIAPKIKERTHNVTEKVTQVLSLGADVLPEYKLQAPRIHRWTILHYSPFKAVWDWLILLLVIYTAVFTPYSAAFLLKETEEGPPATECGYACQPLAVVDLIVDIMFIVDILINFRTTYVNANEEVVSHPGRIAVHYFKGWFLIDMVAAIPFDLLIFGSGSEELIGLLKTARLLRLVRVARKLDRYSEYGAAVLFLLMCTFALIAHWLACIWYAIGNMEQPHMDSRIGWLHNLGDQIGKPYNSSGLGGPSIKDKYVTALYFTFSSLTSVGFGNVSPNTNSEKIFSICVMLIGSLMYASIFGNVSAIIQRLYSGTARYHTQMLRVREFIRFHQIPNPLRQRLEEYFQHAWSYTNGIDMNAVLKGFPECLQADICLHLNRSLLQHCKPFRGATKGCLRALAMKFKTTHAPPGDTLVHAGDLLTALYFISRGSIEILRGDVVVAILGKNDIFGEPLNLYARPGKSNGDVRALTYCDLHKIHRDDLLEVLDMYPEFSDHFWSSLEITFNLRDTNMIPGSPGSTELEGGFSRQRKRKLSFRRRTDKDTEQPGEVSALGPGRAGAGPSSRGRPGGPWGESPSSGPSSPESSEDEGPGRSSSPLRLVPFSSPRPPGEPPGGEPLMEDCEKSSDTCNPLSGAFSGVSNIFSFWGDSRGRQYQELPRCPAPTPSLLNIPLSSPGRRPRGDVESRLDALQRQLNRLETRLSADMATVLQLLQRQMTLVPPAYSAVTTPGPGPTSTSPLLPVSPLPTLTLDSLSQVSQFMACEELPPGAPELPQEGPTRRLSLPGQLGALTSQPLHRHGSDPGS
Experimental: The hERG current measurement was performed at an automated patch clamp system following the procedure described in R. E. Martin et al. in Bio org.

T1 sequence (P08183 whole entry): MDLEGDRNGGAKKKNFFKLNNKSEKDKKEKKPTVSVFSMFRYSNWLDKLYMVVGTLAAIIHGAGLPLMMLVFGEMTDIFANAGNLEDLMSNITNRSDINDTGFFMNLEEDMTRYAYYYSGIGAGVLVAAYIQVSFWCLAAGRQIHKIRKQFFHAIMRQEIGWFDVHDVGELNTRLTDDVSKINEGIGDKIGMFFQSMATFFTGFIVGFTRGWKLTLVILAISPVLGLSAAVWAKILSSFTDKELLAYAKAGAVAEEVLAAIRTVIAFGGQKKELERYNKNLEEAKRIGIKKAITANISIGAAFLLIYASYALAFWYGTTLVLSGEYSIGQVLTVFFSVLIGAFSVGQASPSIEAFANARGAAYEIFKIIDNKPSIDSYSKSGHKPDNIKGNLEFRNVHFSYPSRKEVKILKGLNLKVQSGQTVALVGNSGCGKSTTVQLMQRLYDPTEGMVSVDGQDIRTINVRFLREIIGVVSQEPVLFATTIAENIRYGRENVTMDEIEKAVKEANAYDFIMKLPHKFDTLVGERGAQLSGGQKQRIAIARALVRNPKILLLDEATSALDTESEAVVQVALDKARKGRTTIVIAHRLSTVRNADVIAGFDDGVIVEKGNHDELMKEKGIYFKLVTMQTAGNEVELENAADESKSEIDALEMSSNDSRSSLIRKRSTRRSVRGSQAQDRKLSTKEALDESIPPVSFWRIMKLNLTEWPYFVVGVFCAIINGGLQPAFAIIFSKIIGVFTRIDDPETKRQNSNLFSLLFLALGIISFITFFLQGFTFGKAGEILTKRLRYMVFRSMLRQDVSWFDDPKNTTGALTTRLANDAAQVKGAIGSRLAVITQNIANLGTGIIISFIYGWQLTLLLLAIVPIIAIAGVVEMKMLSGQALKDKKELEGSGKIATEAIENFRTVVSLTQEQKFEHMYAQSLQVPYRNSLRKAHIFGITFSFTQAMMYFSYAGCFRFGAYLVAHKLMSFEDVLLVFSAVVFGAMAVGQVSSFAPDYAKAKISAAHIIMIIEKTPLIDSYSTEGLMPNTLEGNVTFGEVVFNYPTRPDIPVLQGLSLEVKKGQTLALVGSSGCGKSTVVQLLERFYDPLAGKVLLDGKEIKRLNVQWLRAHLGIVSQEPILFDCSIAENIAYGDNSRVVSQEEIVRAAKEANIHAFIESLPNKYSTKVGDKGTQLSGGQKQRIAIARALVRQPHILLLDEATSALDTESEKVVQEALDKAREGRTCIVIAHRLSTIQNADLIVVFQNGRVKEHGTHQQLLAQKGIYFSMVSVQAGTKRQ

SMILES | efflux ratio at 2 h (P-gp (human MDR1)) | IC50 [1] | IC50 (CYP2C9) | hERG Inhibition @ 10 μM (hERG)
NC1=N[C@](CF)(c2cc(NC(=O)c3ccc(OCF)cn3)ccc2F)C[C@@H](C(F)(F)F)O1 [Example 35, N-(3-((4S,6S)-2-Amino-4-(fluoromethyl)-6-(trifluoromethyl)-5,6-dihydro-4H-1,3-oxazin-4-yl)-4-fluorophenyl)-5-(fluoromethoxy)picolinamide] | 1.5 | > 200 µM | 33 µM | 26
C[C@@]1(c2cc(NC(=O)c3ccc(OCF)cn3)ccc2F)C[C@@H](C(F)(F)F)OC(N)=N1 [Example 11, N-(3-((4S,6S)-2-Amino-4-methyl-6-(trifluoromethyl)-5,6-dihydro-4H-1,3-oxazin-4-yl)-4-fluorophenyl)-5-(fluoromethoxy)picolinamide] | 2.3 | > 200 µM | > 50 µM | 26
CC#CCOc1cnc(C(=O)Nc2ccc(F)c([C@]3(C)C[C@@H](C(F)(F)F)OC(N)=N3)c2)cn1 [Example 22, N-(3-((4S,6S)-2-Amino-4-methyl-6-(trifluoromethyl)-5,6-dihydro-4H-1,3-oxazin-4-yl)-4-fluorophenyl)-5-(but-2-ynyloxy)pyrazine-2-carboxamide] | 2.63 | 179 µM | 33 µM | –
C[C@@]1(c2cc(NC(=O)c3ccc(Cl)cn3)ccc2F)C[C@@H](C(F)(F)F)OC(N)=N1 [Example 2, N-(3-((4S,6S)-2-amino-4-methyl-6-(trifluoromethyl)-5,6-dihydro-4H-1,3-oxazin-4-yl)-4-fluorophenyl)-5-chloropicolinamide] | 1.82 | > 200 µM | > 50 µM | 84

Source: US9067926B2, “Fluoromethyl-5,6-dihydro-4H-[1,3]OXAZINES” (F. Hoffmann-La Roche AG, priority 2012, dated 2015)
